Measured values from US10487087B2, “Positive allosteric modulators of the GLP-1 receptor” (Vanderbilt University, priority 2015, dated 2019).

What was measured:
human GLP-1R [1] = target: T1, human GLP-1R (Homo sapiens (Human), UniProt P43220); experiment: GLP-1 assay with EX-4 synthetic agonist (calcium mobilization, EC20 EX-4); type: cell-based; conditions: calcium flux; for Emax at 30 µM: 30 μM compound, EC20 of EX-4; for EC50: potentiation of EC20 EX-4, read-out: GLP1 EC50 (Ex-4 synthetic agonist)
T1 sequence (P43220 24-463): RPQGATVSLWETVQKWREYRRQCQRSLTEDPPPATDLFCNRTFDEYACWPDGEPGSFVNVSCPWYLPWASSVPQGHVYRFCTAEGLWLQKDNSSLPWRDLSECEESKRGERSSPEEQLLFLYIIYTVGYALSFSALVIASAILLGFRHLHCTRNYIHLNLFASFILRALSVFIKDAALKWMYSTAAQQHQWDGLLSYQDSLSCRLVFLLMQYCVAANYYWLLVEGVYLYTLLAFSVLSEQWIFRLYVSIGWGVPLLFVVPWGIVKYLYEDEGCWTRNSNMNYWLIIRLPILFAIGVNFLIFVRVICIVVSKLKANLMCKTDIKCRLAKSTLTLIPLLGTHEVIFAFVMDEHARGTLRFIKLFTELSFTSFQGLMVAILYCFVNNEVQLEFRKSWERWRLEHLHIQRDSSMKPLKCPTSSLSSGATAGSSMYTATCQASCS
From the text: B. GLP-1 Assay with EX-4 Synthetic Agonist
(§1) To assess the effects of test compounds on GLP-1 or glucagon potency and efficacy, a high-throughput calcium mobilization assay was used essentially as previously described (Morris L C, Days E L, Turney M, Mi D, Lindsley C W, Weaver C D, Niswender K D, A Duplexed High-Throughput Screen to Identify Allosteric Modulators of the Glucagon-Like Peptide 1 and Glucagon Receptors. J. Biomol. Screen. 2014 Feb. 13, 19(6):847-858). Briefly, human GLP-1R or Glucagon Receptor 9-3-H cells over-expressing a promiscuous G-protein (Millipore, Billerica, Mass.) were plated at 15,000 cells/well in black-walled 384-well plates (Greiner Bio-one, Monroe, N.C.) in Dulbecco's Modified Eagles Medium (DMEM) with 10% FCS, 4.0 mM L-glutamine, 1× non-essential amino acids (NEAAs), and 10.0 mM HEPES without antibiotics. After overnight attachment, cells were washed twice with assay buffer (HBSS supplemented with 20 mM HEPES and 1.0 mM probenecid) using an EL×405CW cell washer (Bio-Tek, Winooski, Vt.) and then loaded with the calcium sensitive dye fluo-4 AM (Invitrogen, Grand Island, N.Y.) at a final concentration of 2.0 μM in assay buffer. After a 45-minute incubation at room temperature, the dye was removed by washing, leaving 20 μL of assay buffer. Next, the cell plate was introduced alongside a 384-well compound plate containing 0.1% final DMSO control wells and 11-point concentration response curves of putative GLP-1 PAMs created using a non-pipet based liquid transfer instrument, ECH0555 (Labcyte, Sunnyvale, Calif.). After a 20 μL compound addition to the appropriate wells, kinetic fluorescent measurements were collected for 2 minutes using an FDSS6000 (Hamamatsu, Bridgewater, N.J.) with 488 nm excitation and 480/540 emission filters. After 2 minutes, 10 μL of an EC20 concentration of EX-4 (Phoenix Pharmaceuticals, Burlingame, Calif.), Glucagon (Phoenix Pharmaceuticals, Burlingame, Calif.) Exendin-4 (Tocris Bioscience, Bristol, UK), or Liraglutide (Victoza™, Novo-Nordisk, Denmark) was added and fluorescence was monitored for an additional 2 minutes to observe potentiation of the calcium flux signal. […] Recombinant peptides were reconstituted into assay buffer supplemented with 0.1% fatty acid free BSA (Sigma #A6003) and diluted into borosilicate glass tubes to maximize peptide recovery (Goebel-Stengel M, Stengel A, Taché Y, Reeve J R Jr., The importance of using the optimal plasticware and glassware in studies involving peptides. Anal. Biochem. 2011 Jul. 1, 414(1):38-46).
(§2) Data is from a single experiment unless otherwise noted. Data that is an average of two experiments is noted as “n=2” while data that is an average of three or more experiments is presented as the average plus or minus the standard error of the mean.

human GLP-1R [2] = target: T1, human GLP-1R; experiment: GLP-1 assay with GLP1 endogenous agonist (calcium mobilization, EC20 GLP-1 peptide 7-36 amide); type: cell-based; conditions: calcium flux; for Emax at 30 µM: 30 μM compound, EC20 of GLP-1 7-36 amide; for EC50: potentiation of EC20 GLP-1 7-36 amide
From the text: A. GLP-1 Assay with GLP1 Endogenous Agonist
as §1, with “L-glutamine,” for “L-glutamine, 1×”, “ELx405CW” for “EL×405CW”, “GLP-1 peptide 7-36 amide” for “EX-4”, “Tache” for “Taché”
as §2

In the case of `Cc1c2n(c3ccccc13)C(C(=O)NC[C@@H]1CCCN1C(C)C)CN(C1CCCC1)C2=O` (stereo partly drawn) [Compound 3, 2-cyclopentyl-N-(((S)-1-isopropylpyrrolidin-2-yl)methyl)-10-methyl-1-oxo-1,2,3,4-tetrahydropyrazino[1,2-a]indole-4-carboxamide], the Emax at 30 µM (human GLP-1R [1]) is reported as 55%, the EC50 (human GLP-1R [1]) is reported as 11 µM and the Emax at 30 µM (human GLP-1R [2]) is reported as 50%. The EC50 (human GLP-1R [2]) was 5.7 µM.
In the case of `Cc1c2ccccc2n2c(C(=O)NC[C@@H]3CCCN3C(C)C)cn([C@H]3CCOC3)c(=O)c12` [Compound 4, N-(((S)-1-isopropylpyrrolidin-2-yl)methyl)-10-methyl-1-oxo-2-((S)-tetrahydrofuran-3-yl)-1,2-dihydropyrazino[1,2-a]indole-4-carboxamide], the Emax at 30 µM (human GLP-1R [1]) is reported as 50%, the EC50 (human GLP-1R [1]) is reported as 2.9 µM and the Emax at 30 µM (human GLP-1R [2]) is reported as 52%. For the same compound, the EC50 (human GLP-1R [2]) was 2.4 µM.
Work on `Cc1c2ccccc2n2c(C(=O)NC[C@H]3CCCN3C(C)C)cn([C@H]3CCOC3)c(=O)c12` [Compound 5, N-(((R)-1-isopropylpyrrolidin-2-yl)methyl)-10-methyl-1-oxo-2-((S)-tetrahydrofuran-3-yl)-1,2-dihydropyrazino[1,2-a]indole-4-carboxamide] yielded an Emax at 30 µM (human GLP-1R [1]) of 55%, an EC50 (human GLP-1R [1]) of 5.9 µM and an Emax at 30 µM (human GLP-1R [2]) of 56%. It also gave an EC50 (human GLP-1R [2]) of 4.2 µM.
`Cc1c2cc(F)ccc2n2c(C(=O)NC[C@@H]3CCCN3C(C)C)cn(C3CCCC3)c(=O)c12` [Compound 6, (S)-2-cyclopentyl-8-fluoro-N-((1-isopropylpyrrolidin-2-yl)methyl)-10-methyl-1-oxo-1,2-dihydropyrazino[1,2-a]indole-4-carboxamide] was tested, and the Emax at 30 µM (human GLP-1R [1]) was 54%, the EC50 (human GLP-1R [1]) was 6.1 µM and the Emax at 30 µM (human GLP-1R [2]) was 60%. For the same compound, the EC50 (human GLP-1R [2]) was 4.4 µM.
`Cc1c2cc(F)ccc2n2c(C(=O)NC[C@H]3CCCN3C(C)C)cn(C3CCCC3)c(=O)c12` [Compound 7, (R)-2-cyclopentyl-8-fluoro-N-((1-isopropylpyrrolidin-2-yl)methyl)-10-methyl-1-oxo-1,2-dihydropyrazino[1,2-a]indole-4-carboxamide] showed an EC50 (human GLP-1R [1]) of over 30 µM and an EC50 (human GLP-1R [2]) of over 30 µM.
With `Cc1c2n(c3ccccc13)[C@@H](C(=O)NC[C@@H]1CCCN1C(C)C)CN(C1CCCC1)C2=O` [Compound 8, (R)-2-cyclopentyl-N-(((S)-1-isopropylpyrrolidin-2-yl)methyl)-10-methyl-1-oxo-1,2,3,4-tetrahydropyrazino[1,2-a]indole-4-carboxamide] the Emax at 30 µM (human GLP-1R [1]) was 56%, the EC50 (human GLP-1R [1]) was 3.6 µM and the Emax at 30 µM (human GLP-1R [2]) was 56%. It also gave an EC50 (human GLP-1R [2]) of 3.6 µM.
Work on `Cc1c2ccccc2n2c(C(=O)NC[C@@H]3CCCN3C(C)C)cn(-c3ccccc3)c(=O)c12` [Compound 14, (S)-N-((1-isopropylpyrrolidin-2-yl)methyl)-10-methyl-1-oxo-2-phenyl-1,2-dihydropyrazino[1,2-a]indole-4-carboxamide] yielded an Emax at 30 µM (human GLP-1R [2]) of 45% and an EC50 (human GLP-1R [2]) of 13 µM.
`Cc1c2ccccc2n2c(C(=O)NC[C@H]3CCCN3C(C)C)cn(-c3ccccc3)c(=O)c12` [Compound 15, (R)-N-((1-isopropylpyrrolidin-2-yl)methyl)-10-methyl-1-oxo-2-phenyl-1,2-dihydropyrazino[1,2-a]indole-4-carboxamide] gave an EC50 (human GLP-1R [2]) of over 30 µM.
Work on `CC(C)N1CCC[C@H]1CNC(=O)c1cn(C2CCCC2)c(=O)c2c(C#N)c3ccccc3n12` [Compound 16, (S)-10-cyano-2-cyclopentyl-N-((1-isopropylpyrrolidin-2-yl)methyl)-1-oxo-1,2-dihydropyrazino[1,2-a]indole-4-carboxamide] yielded an Emax at 30 µM (human GLP-1R [2]) of 43% and an EC50 (human GLP-1R [2]) of 1.9 µM.
`C=Cc1c2ccccc2n2c(C(=O)NC[C@@H]3CCCN3C(C)C)cn(C3CCCC3)c(=O)c12` [Compound 17, (S)-2-cyclopentyl-N-((1-isopropylpyrrolidin-2-yl)methyl)-1-oxo-10-vinyl-1,2-dihydro-pyrazino[1,2-a]indole-4-carboxamide] gave an Emax at 30 µM (human GLP-1R [2]) of 37% and an EC50 (human GLP-1R [2]) of 9.6 µM.
Compound `Cc1c2ccccc2n2c(C(=O)NC[C@@H]3CCCN3C(C)C)cn(-c3cnn(C)c3)c(=O)c12` [Compound 18, (S)-N-((1-isopropylpyrrolidin-2-yl)methyl)-10-methyl-2-(1-methyl-1H-pyrazol-4-yl)-1-oxo-1,2-dihydropyrazino[1,2-a]indole-4-carboxamide] has an Emax at 30 µM (human GLP-1R [2]) of 34% and an EC50 (human GLP-1R [2]) of 6.7 µM.
`Cc1c2ccccc2n2c(C(=O)NC[C@H]3CCCN3C(C)C)cn(-c3cnn(C)c3)c(=O)c12` [Compound 19, (R)-N-((1-isopropylpyrrolidin-2-yl)methyl)-10-methyl-2-(1-methyl-1H-pyrazol-4-yl)-1-oxo-1,2-dihydropyrazino[1,2-a]indole-4-carboxamide] gave an EC50 (human GLP-1R [2]) of over 30 µM.
Compound `Cc1c2ccccc2n2c(C(=O)NC[C@@H]3CCCN3C(C)C)cn(-c3cccnc3)c(=O)c12` [Compound 20, (S)-N-((1-isopropylpyrrolidin-2-yl)methyl)-10-methyl-1-oxo-2-(pyridin-3-yl)-1,2-dihydropyrazino[1,2-a]indole-4-carboxamide] has an Emax at 30 µM (human GLP-1R [2]) of 36% and an EC50 (human GLP-1R [2]) of 5.2 µM.
`Cc1c2ccccc2n2c(C(=O)NC[C@H]3CCCN3C(C)C)cn(-c3cccnc3)c(=O)c12` [Compound 21, (R)-N-((1-isopropylpyrrolidin-2-yl)methyl)-10-methyl-1-oxo-2-(pyridin-3-yl)-1,2-dihydropyrazino[1,2-a]indole-4-carboxamide] showed an EC50 (human GLP-1R [2]) of over 30 µM.
For `Cc1c2ccccc2n2c(C(=O)NCC3CCN3)cn(C3CCCC3)c(=O)c12` (stereo not shown) [Compound 22, N-(azetidin-2-ylmethyl)-2-cyclopentyl-10-methyl-1-oxo-1,2-dihydropyrazino[1,2-a]indole-4-carboxamide], the EC50 (human GLP-1R [2]) was over 30 µM.
Work on `Cc1c2ccccc2n2c(CO)cn(C3CCCC3)c(=O)c12` [Compound 23, 2-cyclopentyl-4-(hydroxymethyl)-10-methylpyrazino[1,2-a]indol-1(2H)-one] yielded an EC50 (human GLP-1R [2]) of over 30 µM.
`Cc1c2ccccc2n2c(C(=O)NCC3CCN3C(C)C)cn(C3CCCC3)c(=O)c12` (stereo not shown) [Compound 24, 2-cyclopentyl-N-((1-isopropylazetidin-2-yl)methyl)-10-methyl-1-oxo-1,2-dihydropyrazino[1,2-a]indole-4-carboxamide] gave an Emax at 30 µM (human GLP-1R [2]) of 51% and an EC50 (human GLP-1R [2]) of 12 µM.
In the case of `Cc1c2ccccc2n2c(C(=O)O)cn(C3CCCC3)c(=O)c12` [Compound I, 2-Cyclopentyl-10-methyl-1-oxo-1,2-dihydropyrazino[1,2-a]indole-4-carboxylic acid], the EC50 (human GLP-1R [2]) is reported as over 30 µM.
